These results are taken from patent US10219990B2, “Solubilizing agents for UV filters in cosmetic formulations” (BASF SE, priority 2014, dated 2019).

A short description of the data set: Solubility tests of UV filters in solubilizing agents. The class given is physicochemical. The conditions noted are these: stirred seven days at 25° C., UV/Vis-spectrometry; for Solubility [%] of UV filter compound of formula (BPH-02) in solubilizing agent: UV filter (BPH-02); for Solubility [%] of UV filter compound of formula (HTP-02) in solubilizing agent: UV filter (HTP-02); for Solubility [%] of UV filter compound of formula (TAT-02) in solubilizing agent: UV filter (TAT-02). As for the experimental part:
2 ml of the solubilizing agent are filled into a 20 ml vial with cap. Afterwards 0.02 g (1%) of the respective substance (UV Filter) are weighed and added to the solvent. The vial is placed into a thermostat-controlled water bath, wherein the suspension/solution is stirred during seven days at 25° C.
If the substance added to the solubilizing agent is fully soluble, additional substance is added until precipitation can be observed.
After seven days, the sample is centrifuged for 30 minutes at 13000 rpm at 25° C. The supernatant is transferred into a small beaker. In case the sample is still turbid, it is filtered through a 0.2 μm non-steril Membrex 25 PET filter. Clear solutions must not be filtered. When a clear solution is obtained, the concentration of the substance is determined with UV/Vis-spectrometry. For this purpose, the sample may be diluted with a suitable solvent or, in case of lower concentrations, may be measured as it s.
The concentration of the UV-spectroscopic results is measured with the extinction coefficient, which is determined independently with a solvent of similar polarity like that one used for dilution of the saturated solutions.
The solubility can be calculated using the Lambert-Beer-Law equation.

Take `CCCCCCCCCC(=O)N(C)C` [Spectrasolv DMDA, reference compound]: the “Solubility [%] of UV filter compound of formula (BPH-02) in solubilizing agent” value was more than 40%, the “Solubility [%] of UV filter compound of formula (HTP-02) in solubilizing agent” value is given as 40% and the “Solubility [%] of UV filter compound of formula (TAT-02) in solubilizing agent” value came out at 23%.
For C 23-Guerbet-monolactate, the “Solubility [%] of UV filter compound of formula (BPH-02) in solubilizing agent” value is listed as 11.2%, the “Solubility [%] of UV filter compound of formula (HTP-02) in solubilizing agent” value amounted to 2.9% and the “Solubility [%] of UV filter compound of formula (TAT-02) in solubilizing agent” value amounted to 11.9%.
On the same counts, the results for Iso-C18-monolactate are 12.2%, 3.3% and 13.4%.
